Test results taken from US8314112B2 (Novartis AG, priority 2008, dated 2012).

The compounds below were run against T1, human ALK5 (kinase domain, ALK5 T204D) (Homo sapiens, UniProt P36897, T204D) (assay: ALK5 kinase assay ([33P] phosphate incorporation into casein)). Conditions: casein substrate, 1 μM unlabelled ATP.
T1 construct: The kinase domain of human ALK5 (amino acids 200-503); made in house; host or cells: insect cells (baculovirus)
T1 sequence (P36897 200-503 T204D): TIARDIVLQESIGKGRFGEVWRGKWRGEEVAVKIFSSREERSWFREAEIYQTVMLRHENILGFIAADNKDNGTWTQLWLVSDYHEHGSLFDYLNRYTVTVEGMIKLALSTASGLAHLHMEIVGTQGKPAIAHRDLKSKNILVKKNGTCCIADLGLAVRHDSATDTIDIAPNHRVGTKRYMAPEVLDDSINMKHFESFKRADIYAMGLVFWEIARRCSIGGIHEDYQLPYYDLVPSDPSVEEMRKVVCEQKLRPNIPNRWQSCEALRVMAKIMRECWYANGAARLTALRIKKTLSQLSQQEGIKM
Type: biochemical
Description: The kinase activity of ALK5 is assessed by measuring radiolabelled phosphate [33P] incorporation in to the generic substrate, casein. The kinase domain of human ALK5 (amino acids 200-503) is fused to an N-terminal histidine tag. The kinase activity of ALK5 is rendered constitutive via point mutation at amino acid 204 (threonine to aspartate modification, ALK5 T204D) and the kinase construct is engineered to be expressed from a baculovirus expression construct in insect cells. The purified, recombinantly-expressed histidine-tagged ALK5 T204D protein is dissolved at 5.4 mg/ml in 50 mM Tris-HCl pH 8.0, 150 mM NaCl, 5 mM DTT. ALK5 T204D is dissolved to 2.5 μg/ml in assay buffer (Assay buffer: 20 mM Tris-HCl pH 7.4, 10 mM MgCl2, 2 mM MnCl2) on the day of use.
Test compounds and reference compounds are dissolved in assay buffer without DTT containing 5% (v/v) DMSO. Stock solutions of test and reference compounds are diluted in assay buffer with DTT (1.25 mM) containing 4.5% (v/v) DMSO. 10 μl of test or reference compound are added to the appropriate wells of 96 well U-bottomed plate. Total enzyme activity is determined by measuring ALK5 T204D activity in the absence of ALK5 kinase inhibitor reference compounds. Non-specific binding (NSB) is determined by measuring the activity of ALK5 T204D in the presence of ALK5 kinase inhibitor reference compounds. 10 μl of dephosphorylated casein stock solution (dephosphorylated casein is dissolved in ddH2O at 20 mg/ml) is added per well (200 μg/well final assay concentration). 20 μl of ALK5 T204D (2.5 μg/ml solution) is added per well (50 ng/well final assay concentration). The plates are left to incubate at room temperature for 10 minutes.
10 μl of ATP mix is added to the well to initiate the reaction (0.66 nM [^33P]ATP/1 μM unlabelled ATP/well final assay concentration). The ATP mix is prepared as follows, unlabelled ATP (3 mM) is dissolved in ddH2O and pH adjusted to 7.4. The stock concentration of [^33P]ATP is 10 μCi/μl. The appropriate volume of [^33P]ATP is added to unlabelled ATP solution such that the final assay concentration per well is 0.1 μCi. Following addition of the ATP mix, the plates are incubated at room temperature for 50 minutes. The kinase reaction is terminated by the addition of 50 μL Stop Buffer (20 mM Tris-HCl pH 7.4, 10 mM EDTA).
75 μl/well from the reaction plate is transferred to a Multiscreen-IP plate (MultiScreen-IP plates are prepared by added 50 μL of 70% (v/v) ethanol per well and incubated for 5 minutes at room temperature. The ethanol is removed by aspiration via a MultiScreen HTS Vaccum Manifold unit (Millipore, Cat no: MSVMHT500). The plates are washed twice by adding 200 μl/well ddH2O). The MultiScreen-IP plate is incubated at room temperature for 30 minutes to allowing binding of casein to the plate. The MultiScreen-IP plates are washed three times by adding 200 μl/well 100 mM phosphoric acid solution and the gasket is carefully removed from the back of the MultiScreen-IP plate and the plate dried in the oven for 30 minutes. The MultiScreen-IP plate is backsealed, 50 μL of Microscint™20 is added, then the plates are topsealed and radiolabelled casein detected and quantified on a TopCount™ plate-reader using the ^33P scintillation protocol.

Row | IC50 | Structure (SMILES)
1 | 30 nM | Cc1cccc(-c2nc(-c3cncc(-c4cccc(CN)c4)c3)c3cc[nH]c3n2)n1 [Example 59, 3-{5-[2-(6-Methyl-pyridin-2-yl)-7H-pyrrolo[2,3-d]pyrimidin-4-yl]-pyridin-3-yl}-benzylamine]
2 | 29 nM | Cc1cccc(-c2nc(-c3cncc(-c4ccc(CN)cc4)c3)c3cc[nH]c3n2)n1 [Example 61, 4-{5-[2-(6-Methyl-pyridin-2-yl)-7H-pyrrolo[2,3-d]pyrimidin-4-yl]-pyridin-3-yl}-benzylamine]
3 | 24 nM | Cc1cccc(-c2nc(-c3cncc(-c4cccc(CN5CCOCC5)c4)c3)c3cc[nH]c3n2)n1 [Example 67, 2-(6-Methyl-pyridin-2-yl)-4-[5-(3-morpholin-4-ylmethyl-phenyl)-pyridin-3-yl]-7H-pyrrolo[2,3-d]pyrimidine]
4 | 13 nM | Cc1cccc(-c2nc(-c3cncc(-c4ccc(CO)cc4)c3)c3cc[nH]c3n2)n1 [Example 70]
5 | 163 nM | Cc1cccc(-c2nc(-c3cncc(C4=CCCC4)c3)c3cc[nH]c3n2)n1 [Example 74, 4-(5-Cyclopent-1-enyl-pyridin-3-yl)-2-(6-methyl-pyridin-2-yl)-7H-pyrrolo[2,3-d]pyrimidine]
6 | 9 nM | Cc1cccc(-c2nc(-c3cncc(-c4ccc(C(C)(C)N)cc4)c3)c3cc[nH]c3n2)n1 [Example 77, 1-Methyl-1-(4-{5-[2-(6-methyl-pyridin-2-yl)-7H-pyrrolo[2,3-d]pyrimidin-4-yl]-pyridin-3-yl}-phenyl)-ethylamine]
7 | 49 nM | Cc1cccc(-c2nc(-c3cncc(-c4cncc(CO)c4)c3)c3cc[nH]c3n2)n1 [Example 78, {5′-[2-(6-Methyl-pyridin-2-yl)-7H-pyrrolo[2,3-d]pyrimidin-4-yl]-[3,3′]bipyridinyl-5-yl}-methanol]
8 | 1230 nM | Cc1cccc(-c2nc(-c3cncc(CO)c3)c3cc[nH]c3n2)n1 [Example 79, {5-[2-(6-Methyl-pyridin-2-yl)-7H-pyrrolo[2,3-d]pyrimidin-4-yl]-pyridin-3-yl}-methanol]
9 | 239 nM | Cc1cccc(-c2nc(-c3cncc(O)c3)c3cc[nH]c3n2)n1 [Example 80, 5-[2-(6-Methyl-pyridin-2-yl)-7H-pyrrolo[2,3-d]pyrimidin-4-yl]-pyridin-3-ol]
10 | 17 nM | Cc1cccc(-c2nc(-c3cncc(-c4ccc(C(C)N)cc4)c3)c3cc[nH]c3n2)n1 (stereo not shown) [Example 81, 1-(4-{5-[2-(6-Methyl-pyridin-2-yl)-7H-pyrrolo[2,3-d]pyrimidin-4-yl]-pyridin-3-yl}-phenyl)-ethylamine]
11 | 557 nM | Cc1cccc(-c2nc(-c3cncc(-c4nnco4)c3)c3cc[nH]c3n2)n1 [Example 83, 2-(6-Methyl-pyridin-2-yl)-4-(5-[1,3,4]oxadiazol-2-yl-pyridin-3-yl)-7H-pyrrolo[2,3-d]pyrimidine]

Further lines, the compound ahead of its results:

Row | Structure (SMILES) | IC50
12 | Cc1cccc(-c2cc(-c3cncc4ccccc34)c3cc[nH]c3n2)n1 [Example 56, 4-[6-(6-Methyl-pyridin-2-yl)-1H-pyrrolo[2,3-b]pyridin-4-yl]-isoquinoline] | < 70 nM
13 | Cc1cccc(-c2cc(-c3cncc(N4CCN(C)CC4)c3)c3cc[nH]c3n2)n1 [Example 57, 4-[5-(4-Methyl-piperazin-1-yl)-pyridin-3-yl]-6-(6-methyl-pyridin-2-yl)-1H-pyrrolo[2,3-b]pyridine] | 271 nM
14 | CCOc1cncc(-c2cc(-c3cccc(C)n3)nc3[nH]ccc23)c1 [Example 58, 4-(5-Ethoxy-pyridin-3-yl)-6-(6-methyl-pyridin-2-yl)-1H-pyrrolo[2,3-b]pyridine] | 56 nM
15 | COc1cccc(-c2cncc(-c3cc(-c4cccc(C)n4)nc4[nH]ccc34)c2)c1 [Example 60, 4-[5-(3-Methoxy-phenyl)-pyridin-3-yl]-6-(6-methyl-pyridin-2-yl)-1H-pyrrolo[2,3-b]pyridine] | 96 nM
16 | Cc1cccc(-c2cc(-c3cncc(NC(=O)CCN(C)C)c3)c3cc[nH]c3n2)n1 [Example 62, 3-Dimethylamino-N-{5-[6-(6-methyl-pyridin-2-yl)-1H-pyrrolo[2,3-b]pyridin-4-yl]-pyridin-3-yl}-propionamide] | 40 nM
17 | Cc1cccc(-c2cc(-c3cncc(-c4cccc(CN5CCN(C)CC5)c4)c3)c3cc[nH]c3n2)n1 [Example 63, 4-{5-[3-(4-Methyl-piperazin-1-ylmethyl)-phenyl]-pyridin-3-yl}-6-(6-methyl-pyridin-2-yl)-1H-pyrrolo[2,3-b]pyridine] | 12 nM
18 | Cc1cccc(-c2cc(-c3cncc(OC(C)C)c3)c3cc[nH]c3n2)n1 [Example 64, 4-(5-Isopropoxy-pyridin-3-yl)-6-(6-methyl-pyridin-2-yl)-1H-pyrrolo[2,3-b]pyridine] | 250 nM
19 | Cc1cccc(-c2cc(-c3cncc(-c4ccc(CN(C)C)cc4)c3)c3cc[nH]c3n2)n1 [Example 65, Dimethyl-(4-{5-[6-(6-methyl-pyridin-2-yl)-1H-pyrrolo[2,3-b]pyridin-4-yl]-pyridin-3-yl}-benzyl)-amine] | 5 nM
20 | Cc1cccc(-c2cc(-c3cncc(-c4cccc(CN(C)C)c4)c3)c3cc[nH]c3n2)n1 [Example 66, Dimethyl-(3-{5-[6-(6-methyl-pyridin-2-yl)-1H-pyrrolo[2,3-b]pyridin-4-yl]-pyridin-3-yl}-benzyl)-amine] | < 69 nM
21 | CNCc1cccc(-c2cncc(-c3cc(-c4cccc(C)n4)nc4[nH]ccc34)c2)c1 [Example 68, Methyl-(3-{5-[6-(6-methyl-pyridin-2-yl)-1H-pyrrolo[2,3-b]pyridin-4-yl]-pyridin-3-yl}-benzyl)-amine] | < 32 nM
22 | Cc1cccc(-c2nc(-c3cncc(-c4ccc(CN5CCOCC5)cc4)c3)c3cc[nH]c3n2)n1 [Example 69, 2-(6-Methyl-pyridin-2-yl)-4-[5-(4-morpholin-4-ylmethyl-phenyl)-pyridin-3-yl]-7H-pyrrolo[2,3-d]pyrimidine] | < 64 nM
23 | Cc1cccc(-c2nc(-c3cncc(C4=CCCCC4)c3)c3cc[nH]c3n2)n1 [Example 72, 4-(5-Cyclohex-1-enyl-pyridin-3-yl)-2-(6-methyl-pyridin-2-yl)-7H-pyrrolo[2,3-d]pyrimidine] | 198 nM
24 | CNCc1ccc(-c2cncc(-c3cc(-c4cccc(C)n4)nc4[nH]ccc34)c2)cc1 [Example 73, Methyl-(4-{5-[6-(6-methyl-pyridin-2-yl)-1H-pyrrolo[2,3-b]pyridin-4-yl]-pyridin-3-yl}-benzyl)-amine] | 17 nM
25 | Cc1cccc(-c2nc(-c3cncc(-c4cncc(CN(C)C)c4)c3)c3cc[nH]c3n2)n1 [Example 75] | 310 nM
26 | CNCc1cncc(-c2cncc(-c3nc(-c4cccc(C)n4)nc4[nH]ccc34)c2)c1 [Example 76] | 117 nM
27 | Cc1cccc(-c2cc(-c3cncc(-c4ccc(CO)cc4)c3)c3cc[nH]c3n2)n1 [Example 82, (4-{5-[6-(6-Methyl-pyridin-2-yl)-1H-pyrrolo[2,3-b]pyridin-4-yl]-pyridin-3-yl}-phenyl)-methanol] | 12 nM
28 | Cc1cccc(-c2cc(-c3cncc(-c4ccc(CN)cc4)c3)c3cc[nH]c3n2)n1 [Example 84, 4-{5-[6-(6-Methyl-pyridin-2-yl)-1H-pyrrolo[2,3-b]pyridin-4-yl]-pyridin-3-yl}-benzylamine] | 36 nM
